# Target: unphosphorylated-BTK kinase domain (UP-BTK), GST-tagged human BTK (389-659aa) (Homo sapiens (Human), UniProt Q06187)
# Test: BTK kinase Lanthascreen binding assay
# Settings: pIC50 = negative log of the IC50 in molar, 60 minutes incubation, 50 nM Tracer 236
# Outline: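 A fluorescent tracer is bound to unphosphorylated BTK; test compound is added to compete it off; the Lanthascreen signal is read and IC50 is fitted, then reported as its negative log in molar.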
# Chain of unphosphorylated-BTK kinase domain (UP-BTK), GST-tagged human BTK (389-659aa) (Q06187 389-659): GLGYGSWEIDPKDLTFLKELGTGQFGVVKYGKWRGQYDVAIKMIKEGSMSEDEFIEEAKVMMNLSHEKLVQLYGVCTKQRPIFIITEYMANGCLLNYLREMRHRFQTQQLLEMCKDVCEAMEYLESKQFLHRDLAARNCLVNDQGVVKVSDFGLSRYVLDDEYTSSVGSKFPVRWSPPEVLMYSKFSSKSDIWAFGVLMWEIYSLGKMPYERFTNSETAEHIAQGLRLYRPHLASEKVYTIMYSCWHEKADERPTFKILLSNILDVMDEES
SMILES,BTK_I_binding pIC50,IC50 (read-out: BTK_I_binding pIC50 (converted)) [nM]
"Cc1cc(Oc2cccc(F)c2)ccc1N1C(=O)Nc2c(C(=O)N[C@@H]3CCCN(C)C3)sc3nccc1c23 [Example 214, (R)-5-(4-(3-Fluorophenoxy)-2-methylphenyl)-N-(1-methylpiperidin-3-yl)-4-oxo-4,5-dihydro-3H-1-thia-3,5,8-triazaacenaphthylene-2-carboxamide]",6.8,–
"COCCC(=O)N1CCC[C@@H](NC(=O)c2sc3nccc4c3c2NC(=O)N4c2ccc(Oc3ccccc3)cc2F)C1 [Example 215, (R)-5-(2-Fluoro-4-phenoxyphenyl)-N-(1-(3-methoxypropanoyl)piperidin-3-yl)-4-oxo-4,5-dihydro-3H-1-thia-3,5,8-triazaacenaphthylene-2-carboxamide]",7.2,–
"Cc1cc(Oc2ccccc2)ccc1N1C(=O)Nc2c(C(=O)NCCN3CCNC3=O)sc3nccc1c23 [Example 217, 5-(2-Methyl-4-phenoxyphenyl)-4-oxo-N-(2-(2-oxoimidazolidin-1-yl)ethyl)-4,5-dihydro-3H-1-thia-3,5,8-triazaacenaphthylene-2-carboxamide]",6.5,–
"Cc1cc(Oc2ccccc2)ccc1N1C(=O)Nc2c(C(=O)N[C@@H]3CCCN(C(=O)C4CCOCC4)C3)sc3nccc1c23 [Example 219, (R)-5-(2-Methyl-4-phenoxyphenyl)-4-oxo-N-(1-(tetrahydro-2H-pyran-4-carbonyl)piperidin-3-yl)-4,5-dihydro-3H-1-thia-3,5,8-triazaacenaphthylene-2-carboxamide]",6.9,–
"Cc1cc(Oc2ccccc2)cc(F)c1N1C(=O)Nc2c(C(=O)N[C@@H]3CCCN(C)C3)sc3nccc1c23 [Example 222, (R)-5-(2-Fluoro-6-methyl-4-phenoxyphenyl)-N-(1-methylpiperidin-3-yl)-4-oxo-4,5-dihydro-3H-1-thia-3,5,8-triazaacenaphthylene-2-carboxamide]",6.7,–
"Cc1cc(Oc2ccccc2C(C)C)ccc1N1C(=O)Nc2c(C(=O)N[C@@H]3CCCN(C)C3)sc3nccc1c23 [Example 223, (R)-5-(4-(2-Isopropylphenoxy)-2-methylphenyl)-N-(1-methylpiperidin-3-yl)-4-oxo-4,5-dihydro-3H-1-thia-3,5,8-triazaacenaphthylene-2-carboxamide]",6.6,–
"CC(C)=CC(=O)N1CCC[C@@H](NC(=O)c2sc3nccc4c3c2NC(=O)N4c2ccc(Oc3ccccc3)cc2C)C1 [Example 225, (R)-5-(2-Methyl-4-phenoxyphenyl)-N-(1-(3-methylbut-2-enoyl)piperidin-3-yl)-4-oxo-4,5-dihydro-3H-1-thia-3,5,8-triazaacenaphthylene-2-carboxamide]",6.7,–
"COCc1cccc(Oc2ccc(N3C(=O)Nc4c(C(=O)N[C@@H]5CCCN(C)C5)sc5nccc3c45)c(C)c2)c1 [Example 226, (R)-5-(4-(3-(Methoxymethyl)phenoxy)-2-methylphenyl)-N-(1-methylpiperidin-3-yl)-4-oxo-4,5-dihydro-3H-1-thia-3,5,8-triazaacenaphthylene-2-carboxamide]",6.5,–
"Cc1cc(Oc2ccccc2OC(F)(F)F)ccc1N1C(=O)Nc2c(C(=O)N[C@@H]3CCCN(C)C3)sc3nccc1c23 [Example 227, (R)-5-(2-Methyl-4-(2-(trifluoromethoxy)phenoxy)phenyl)-N-(1-methylpiperidin-3-yl)-4-oxo-4,5-dihydro-3H-1-thia-3,5,8-triazaacenaphthylene-2-carboxamide]",6.5,–
"Cc1cc(Oc2ccccc2)ccc1N1C(=O)Nc2c(C(=O)N[C@@H]3CCCN(C(=O)/C(F)=C/C4CC4)C3)sc3nccc1c23 [Example 228, (R,Z)—N-(1-(3-Cyclopropyl-2-fluoroacryloyl)piperidin-3-yl)-5-(2-methyl-4-phenoxyphenyl)-4-oxo-4,5-dihydro-3H-1-thia-3,5,8-triazaacenaphthylene-2-carboxamide]",6.6,–
"Cc1cc(Oc2ccccc2)ccc1N1C(=O)Nc2c(C(=O)N[C@H]3CNC[C@@H]3O)sc3nccc1c23 [Example 236, N-((3S,4S)-4-Hydroxypyrrolidin-3-yl)-5-(2-methyl-4-phenoxyphenyl)-4-oxo-4,5-dihydro-3H-1-thia-3,5,8-triazaacenaphthylene-2-carboxamide]",7.0,–
Cc1cc(Oc2ccccc2)ccc1N1C(=O)Nc2c(C(=O)NC3CN(C(=O)CCS(C)(=O)=O)C3)sc3nccc1c23 [Example 240],–,200

# Further lines, results first:
BTK_I_binding pIC50,IC50 (read-out: BTK_I_binding pIC50 (converted)) [nM],SMILES
6.7,–,"Cc1cccc(Oc2ccc(N3C(=O)Nc4c(C(=O)N[C@@H]5CCCN(C)C5)sc5nccc3c45)c(C)c2)c1 [Example 210, (R)-5-(2-Methyl-4-(m-tolyloxy)phenyl)-N-(1-methylpiperidin-3-yl)-4-oxo-4,5-dihydro-3H-1-thia-3,5,8-triazaacenaphthylene-2-carboxamide]"
6.7,–,"CO[C@@H]1CNC[C@@H]1NC(=O)c1sc2nccc3c2c1NC(=O)N3c1ccc(Oc2ccccc2)cc1C [Example 211, N-((3S,4R)-4-Methoxypyrrolidin-3-yl)-5-(2-methyl-4-phenoxyphenyl)-4-oxo-4,5-dihydro-3H-1-thia-3,5,8-triazaacenaphthylene-2-carboxamide]"
7.0,–,"CCNC(C)(C)/C=C(\C#N)C(=O)N1CCC[C@@H](NC(=O)c2sc3nccc4c3c2NC(=O)N4c2ccc(Oc3ccccc3)cc2C)C1 [Example 212, (R,E)-N-(1-(2-Cyano-4-(ethylamino)-4-methylpent-2-enoyl)piperidin-3-yl)-5-(2-methyl-4-phenoxyphenyl)-4-oxo-4,5-dihydro-3H-1-thia-3,5,8-triazaacenaphthylene-2-carboxamide]"
6.5,–,"Cc1cc(Oc2ccccc2)ccc1N1C(=O)Nc2c(C(=O)N[C@@H]3CCCN(C4CC4)C3)sc3nccc1c23 [Example 213, (R)—N-(1-Cyclopropylpiperidin-3-yl)-5-(2-methyl-4-phenoxyphenyl)-4-oxo-4,5-dihydro-3H-1-thia-3,5,8-triazaacenaphthylene-2-carboxamide]"
6.7,–,"C=CC(=O)N1CCC[C@@H](NC(=O)c2sc3nccc4c3c2NC(=O)N4c2ccccc2C)C1 [Example 216, (R)—N-(1-Acryloylpiperidin-3-yl)-4-oxo-5-(o-tolyl)-4,5-dihydro-3H-1-thia-3,5,8-triazaacenaphthylene-2-carboxamide]"
6.8,–,"Cc1cc(Oc2ccccc2)ccc1N1C(=O)Nc2c(C(=O)N[C@H]3CNC[C@@H]3F)sc3nccc1c23 [Example 218, N-((3S,4S)-4-Fluoropyrrolidin-3-yl)-5-(2-methyl-4-phenoxyphenyl)-4-oxo-4,5-dihydro-3H-1-thia-3,5,8-triazaacenaphthylene-2-carboxamide]"
6.5,–,"Cc1cc(Oc2ccccc2O)ccc1N1C(=O)Nc2c(C(=O)N[C@@H]3CCCN(C)C3)sc3nccc1c23 [Example 220, (R)-5-(4-(2-Hydroxyphenoxy)-2-methylphenyl)-N-(1-methylpiperidin-3-yl)-4-oxo-4,5-dihydro-3H-1-thia-3,5,8-triazaacenaphthylene-2-carboxamide]"
6.8,–,"CO[C@H]1CNC[C@H](NC(=O)c2sc3nccc4c3c2NC(=O)N4c2ccc(Oc3ccccc3)cc2C)C1 [Example 224, N-((3R,5R)-5-Methoxypiperidin-3-yl)-5-(2-methyl-4-phenoxyphenyl)-4-oxo-4,5-dihydro-3H-1-thia-3,5,8-triazaacenaphthylene-2-carboxamide]"
6.7,–,"Cc1cc(Oc2ccccc2)ccc1N1C(=O)Nc2c(C(=O)NC3CN(C(=O)/C(C#N)=C/C4CC4)C3)sc3nccc1c23 [Example 229, (E)-N-(1-(2-Cyano-3-cyclopropylacryloyl)azetidin-3-yl)-5-(2-methyl-4-phenoxyphenyl)-4-oxo-4,5-dihydro-3H-1-thia-3,5,8-triazaacenaphthylene-2-carboxamide]"
6.4,–,"Cc1cc(Oc2ccccc2)ccc1N1C(=O)Nc2c(C(=O)NC3CN(C4CC4)C3)sc3nccc1c23 [Example 230, N-(1-Cyclopropylazetidin-3-yl)-5-(2-methyl-4-phenoxyphenyl)-4-oxo-4,5-dihydro-3H-1-thia-3,5,8-triazaacenaphthylene-2-carboxamide]"
7.2,–,"Cc1cc(OC2CCOCC2)ccc1N1C(=O)Nc2c(C(=O)N[C@@H]3CCCN(C(=O)/C(C#N)=C/C4CC4)C3)sc3nccc1c23 [Example 233, (R,E)-N-(1-(2-Cyano-3-cyclopropylacryloyl)piperidin-3-yl)-5-(2-methyl-4-((tetrahydro-2H-pyran-4-yl)oxy)phenyl)-4-oxo-4,5-dihydro-3H-1-thia-3,5,8-triazaacenaphthylene-2-carboxamide]"
7.0,–,"O=C(N[C@@H]1CCCNC1)c1sc2nccc3c2c1NC(=O)N3c1c(F)cc(Oc2ccccc2)cc1F [Example 235, (R)-5-(2,6-difluoro-4-phenoxyphenyl)-4-oxo-N-(piperidin-3-yl)-4,5-dihydro-3H-1-thia-3,5,8-triazaacenaphthylene-2-carboxamide]"
6.9,–,"Cc1cc(Oc2ccccc2)ccc1N1C(=O)Nc2c(C(=O)NC3CCCN(C(=O)/C=C/CNC(=O)CCCC(=O)NCCCOCCOCCOCCCNC(=O)CCCC[C@H]4SC[C@@H]5NC(=O)N[C@@H]54)C3)sc3nccc1c23 (stereo partly drawn) [Example 237, N^1-((E)-4-(3-(5-(2-methyl-4-phenoxyphenyl)-4-oxo-4,5-dihydro-3H-1-thia-3,5,8-triazaacenaphthylene-2-carboxamido)piperidin-1-yl)-4-oxobut-2-en-1-yl)-N5-(15-oxo-19-((3aS,4R,6aR)-2-oxohexahydro-1H-thieno[34-d]imidazol-4-yl)-4,7,10-trioxa-14-azanonadecyl)glutaramide]"
6.8,–,"CNC(C)(C)/C=C(\C#N)C(=O)N1CCC[C@@H](NC(=O)c2sc3nccc4c3c2NC(=O)N4c2ccc(Oc3ccccc3)cc2C)C1 [Example 238, (R,E)-N-(1-(2-Cyano-4-methyl-4-(methylamino)pent-2-enoyl)piperidin-3-yl)-5-(2-methyl-4-phenoxyphenyl)-4-oxo-4,5-dihydro-3H-1-thia-3,5,8-triazaacenaphthylene-2-carboxamide]"

# — patent US10800792B2, “Inhibitors of Bruton's tyrosine kinase and method of their use” (JANSSEN PHARMACEUTICA NV, priority 2015, dated 2020)
